Cl.NCCCC[C@H](N)C(=O)O
Conditions	solubility (mole fraction)
in DMSO, 282.8 K	0.0179
in DMSO, 288.2 K	0.0243
in DMSO, 293 K	0.0301
in DMSO, 298.1 K	0.0357
in DMSO, 303.3 K	0.0391
in DMSO, 308.4 K	0.0432
in DMSO, 312.8 K	0.0469
in DMSO, 318.1 K	0.0516
in DMSO, 323.2 K	0.0529
in DMSO, 328.3 K	0.0561
in ethanol, 288.1 K	6.71e-06
in ethanol, 292.8 K	8.31e-06
in ethanol, 298.1 K	9.91e-06
in ethanol, 303 K	1.09e-05
in ethanol, 308.1 K	1.22e-05
in ethanol, 312.7 K	1.41e-05
in ethanol, 318.2 K	1.63e-05
in ethanol, 322.9 K	1.76e-05
in ethanol, 328.3 K	1.92e-05
in ethylene glycol, 282.9 K	0.00769
in ethylene glycol, 288 K	0.0108
in ethylene glycol, 293.1 K	0.0146
in ethylene glycol, 298.2 K	0.0183
in ethylene glycol, 303.2 K	0.022
in ethylene glycol, 307.9 K	0.0259
in ethylene glycol, 312.9 K	0.0298
in ethylene glycol, 318 K	0.0326
in ethylene glycol, 322.7 K	0.0354
in ethylene glycol, 328.1 K	0.0377
in methanol, 297.9 K	0.000283
in methanol, 303 K	0.000368
in methanol, 308.1 K	0.000433
in methanol, 312.8 K	0.000501
in methanol, 318.1 K	0.00055
in methanol, 323 K	0.000592
in methanol, 327.8 K	0.000637
in water, 283 K	0.0497
in water, 288.1 K	0.0543
in water, 292.9 K	0.0587
in water, 298.1 K	0.0618
in water, 302.8 K	0.0627
in water, 308 K	0.0707
in water, 313.3 K	0.0833
in water, 317.9 K	0.0925
in water, 323 K	0.102
in water, 328.2 K	0.111
